In US9932314B2, “Pyrazole compounds and their use as T-type calcium channel blockers” (IDORSIA PHARMACEUTICALS LTD, priority 2015, dated 2018):

These molecules were tested against T1, voltage-dependent T-type calcium channel subunit alpha-1G (Cav3.2) (Homo sapiens, UniProt O95180) (assay: FLIPR calcium flux assay, HEK293 cells recombinantly expressing Cav3.2). Settings: Cav3.2-channel, Fluo-4-AM, 3 min incubation, stimulation with 10 mM CaCl2.
T1 construct: expressed in transfected cells; host or cells: HEK293
Type: cell-based
In short: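 Calcium influx was triggered by adding CaCl2 to 10 mM final, 3 min after compounds in tetraethylammonium-based buffer, pH 7.2, reached Fluo-4-AM-loaded recombinant HEK293 cells. The integrated kinetic fluorescence signal per concentration gave concentration-response curves by non-linear sigmoidal regression.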

T1 sequence (O95180 whole entry): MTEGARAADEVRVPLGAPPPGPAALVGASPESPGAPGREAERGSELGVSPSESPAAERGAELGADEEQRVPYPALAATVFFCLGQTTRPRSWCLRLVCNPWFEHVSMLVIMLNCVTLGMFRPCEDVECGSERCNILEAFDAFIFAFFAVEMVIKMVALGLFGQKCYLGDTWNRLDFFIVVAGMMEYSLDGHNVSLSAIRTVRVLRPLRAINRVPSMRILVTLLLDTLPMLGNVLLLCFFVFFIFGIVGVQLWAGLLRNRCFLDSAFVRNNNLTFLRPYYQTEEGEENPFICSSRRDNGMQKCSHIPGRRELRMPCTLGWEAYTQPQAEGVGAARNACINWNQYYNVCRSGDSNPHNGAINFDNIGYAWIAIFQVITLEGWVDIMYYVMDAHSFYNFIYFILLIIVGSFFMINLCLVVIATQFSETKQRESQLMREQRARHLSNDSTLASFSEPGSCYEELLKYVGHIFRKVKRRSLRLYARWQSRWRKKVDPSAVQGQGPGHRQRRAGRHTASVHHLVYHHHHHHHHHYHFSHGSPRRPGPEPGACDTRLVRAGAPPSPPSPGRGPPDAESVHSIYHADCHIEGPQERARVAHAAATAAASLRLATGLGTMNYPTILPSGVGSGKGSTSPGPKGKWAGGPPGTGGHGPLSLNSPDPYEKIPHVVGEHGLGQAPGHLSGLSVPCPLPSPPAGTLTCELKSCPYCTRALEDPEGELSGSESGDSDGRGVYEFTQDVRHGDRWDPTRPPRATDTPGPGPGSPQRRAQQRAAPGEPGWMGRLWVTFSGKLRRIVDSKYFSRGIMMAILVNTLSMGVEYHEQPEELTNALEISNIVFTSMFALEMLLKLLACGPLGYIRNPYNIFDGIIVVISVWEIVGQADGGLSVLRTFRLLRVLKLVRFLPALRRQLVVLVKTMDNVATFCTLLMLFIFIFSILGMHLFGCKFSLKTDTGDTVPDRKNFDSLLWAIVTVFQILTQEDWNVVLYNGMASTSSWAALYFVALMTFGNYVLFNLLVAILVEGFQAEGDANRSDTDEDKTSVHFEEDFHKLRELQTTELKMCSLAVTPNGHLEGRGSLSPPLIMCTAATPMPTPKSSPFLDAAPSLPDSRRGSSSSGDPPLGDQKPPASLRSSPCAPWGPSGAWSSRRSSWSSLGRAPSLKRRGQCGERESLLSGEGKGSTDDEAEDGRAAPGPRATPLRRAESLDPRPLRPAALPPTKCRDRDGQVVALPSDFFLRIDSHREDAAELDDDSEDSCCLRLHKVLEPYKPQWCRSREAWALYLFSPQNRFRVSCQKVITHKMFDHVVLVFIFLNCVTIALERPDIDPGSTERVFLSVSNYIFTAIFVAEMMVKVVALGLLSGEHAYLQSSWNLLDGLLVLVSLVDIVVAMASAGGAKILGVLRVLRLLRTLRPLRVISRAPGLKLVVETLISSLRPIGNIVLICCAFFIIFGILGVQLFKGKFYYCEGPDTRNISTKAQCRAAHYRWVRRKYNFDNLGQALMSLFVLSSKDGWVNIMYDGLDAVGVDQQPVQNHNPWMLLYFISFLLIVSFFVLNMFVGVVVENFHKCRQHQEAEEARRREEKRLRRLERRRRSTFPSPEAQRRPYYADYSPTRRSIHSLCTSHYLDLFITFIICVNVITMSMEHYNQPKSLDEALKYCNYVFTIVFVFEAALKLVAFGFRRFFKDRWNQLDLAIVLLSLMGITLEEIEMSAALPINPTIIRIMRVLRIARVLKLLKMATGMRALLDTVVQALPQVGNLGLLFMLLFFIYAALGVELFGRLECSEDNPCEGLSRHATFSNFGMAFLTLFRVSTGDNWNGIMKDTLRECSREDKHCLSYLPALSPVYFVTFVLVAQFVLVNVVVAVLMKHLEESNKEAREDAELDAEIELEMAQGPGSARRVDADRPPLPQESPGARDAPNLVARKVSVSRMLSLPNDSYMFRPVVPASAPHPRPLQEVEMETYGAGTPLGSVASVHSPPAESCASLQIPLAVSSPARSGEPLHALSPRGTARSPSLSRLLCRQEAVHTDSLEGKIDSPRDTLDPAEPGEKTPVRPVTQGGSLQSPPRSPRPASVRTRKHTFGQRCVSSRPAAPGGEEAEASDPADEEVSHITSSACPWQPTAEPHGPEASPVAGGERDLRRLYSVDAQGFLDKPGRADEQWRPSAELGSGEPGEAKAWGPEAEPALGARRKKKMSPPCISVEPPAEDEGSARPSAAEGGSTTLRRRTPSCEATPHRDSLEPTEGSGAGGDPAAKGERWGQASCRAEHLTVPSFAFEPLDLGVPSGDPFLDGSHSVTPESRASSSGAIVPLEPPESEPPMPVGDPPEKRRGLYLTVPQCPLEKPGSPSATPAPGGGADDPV

SMILES	IC50 [nM]
CC(C)c1ccc(CC(=O)Nc2ccn(Cc3cc(C(F)F)c(C#N)cn3)n2)cc1 [Example 386, N-[1-(5-cyano-4-difluoromethyl-pyridin-2-ylmethyl)-1H-pyrazol-3-yl]-2-(4-isopropyl-phenyl)-acetamide]	69
N#Cc1ccc(Cn2ccc(NC(=O)Cc3ccc(N4CCCC4)nc3)n2)nc1 [Example 276, N-[1-(5-Cyano-pyridin-2-ylmethyl)-1H-pyrazol-3-yl]-2-(6-pyrrolidin-1-yl-pyridin-3-yl)-acetamide]	188
CC(C)Cc1ccc(CC(=O)Nc2ccn(Cc3ccc(C#N)cn3)n2)cc1C#N [Example 392, 2-(3-Cyano-4-isobutyl-phenyl)-N-[1-(5-cyano-pyridin-2-ylmethyl)-1H-pyrazol-3-yl]-acetamide]	101
N#Cc1ccc(Cn2ccc(NC(=O)Cc3ccc(N4CCC4)cc3)n2)cc1 [Example 54, 2-(4-Azetidin-1-yl-phenyl)-N-[1-(4-cyano-benzyl)-1H-pyrazol-3-yl]-acetamide]	28
N#Cc1ccc(Cn2ccc(NC(=O)Cc3ccc(N4CC(F)C4)nc3)n2)cc1 [Example 161, N-[1-(4-Cyano-benzyl)-1H-pyrazol-3-yl]-2-[6-(3-fluoro-azetidin-1-yl)-pyridin-3-yl]-acetamide]	258
O=C(Cc1ccc(N2CC(F)(F)C2)nc1)Nc1ccn(Cc2ccc(F)c(F)c2)n1 [Example 143, 2-[6-(3,3-Difluoro-azetidin-1-yl)-pyridin-3-yl]-N-[1-(3,4-difluoro-benzyl)-1H-pyrazol-3-yl]-acetamide]	19
Cn1ncc2ccc(CC(=O)Nc3ccn(Cc4ccc(F)c(C#N)c4)n3)cc21 [Example 308, N-[1-(3-Cyano-4-fluoro-benzyl)-1H-pyrazol-3-yl]-2-(1-methyl-1H-indazol-6-yl)-acetamide]	263
